From patent US9096591B2, “Tetracyclic compounds” (Medivation Technologies, Inc., priority 2007, dated 2015)
Like-named read-outs stand apart in the source and are kept apart here.

How the values were obtained:
[1] = molecular target: T1, human recombinant dopamine D2L receptor (Homo sapiens, UniProt P14416); test: Dopamine D2L radioligand binding ([3H]Spiperone); conditions: percent inhibition of specific binding
T1 construct: expressed in transfected cells; host or cells: CHO cells
Protocol: (§1) Non-specific binding was estimated in the presence of 10 μM Haloperidol. Receptor proteins were filtered and washed, the filters were then counted to determine [^3H]Spiperone specifically bound. […] Biochemical assay results are presented as the percent inhibition of specific binding in Table 6.

[2] = molecular target: T2, human recombinant serotonin (5-Hydroxytryptamine) 5-HT6 receptor (Homo sapiens, UniProt P50406); test: Serotonin 5-HT6 radioligand binding ([3H]LSD); parameters: Inhibition of ligand binding, Ser. 5-HT6: concentration or dose not given beside the values; conditions: percent inhibition of specific binding
T2 construct: expressed in transfected cells; host or cells: human HeLa cells
From the text: Receptor proteins were filtered and washed, the filters were then counted to determine [3H]LSD specifically bound. […] Biochemical assay results are presented as the percent inhibition of specific binding in Table 6.

[3] = molecular target: T3, human recombinant adrenergic α1D receptor (Homo sapiens, UniProt P25100); test: Adrenergic α1D radioligand binding ([3H]Prozosin); parameters: Inhibition of ligand binding, Adren. alpha1D: concentration or dose not given beside the values; conditions: percent inhibition of specific binding
T3 construct: expressed in transfected cells; host or cells: HEK-293 cells
T3 sequence (P25100 1-572): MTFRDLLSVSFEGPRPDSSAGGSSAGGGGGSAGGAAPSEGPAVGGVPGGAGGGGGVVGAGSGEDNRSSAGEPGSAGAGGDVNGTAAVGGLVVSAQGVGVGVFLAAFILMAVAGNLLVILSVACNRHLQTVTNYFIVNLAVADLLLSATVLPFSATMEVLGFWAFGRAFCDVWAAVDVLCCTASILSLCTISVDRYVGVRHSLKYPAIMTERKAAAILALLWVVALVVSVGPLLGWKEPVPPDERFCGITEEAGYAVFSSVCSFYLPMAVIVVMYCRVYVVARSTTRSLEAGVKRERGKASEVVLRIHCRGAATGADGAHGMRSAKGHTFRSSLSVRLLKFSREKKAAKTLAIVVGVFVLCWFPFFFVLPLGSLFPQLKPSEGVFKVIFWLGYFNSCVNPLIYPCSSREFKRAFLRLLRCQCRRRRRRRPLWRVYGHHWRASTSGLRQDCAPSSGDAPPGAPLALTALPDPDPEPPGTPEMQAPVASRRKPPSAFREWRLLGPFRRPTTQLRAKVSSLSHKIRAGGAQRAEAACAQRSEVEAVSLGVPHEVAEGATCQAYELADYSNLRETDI
Protocol: as §1, with “Compounds of invention were incubated with 0.6 nM [^3H]Prozosin for 60 minutes at 25° C. Non-specific” for “Non-specific”, “phentolamine.” for “Haloperidol.”, “[^3H]Prozosin” for “[^3H]Spiperone”

[4] = molecular target: T4, human recombinant serotonin (5-Hydroxytryptamine) 5-HT2A receptor (Homo sapiens, UniProt P28223); test: Serotonin 5-HT2A radioligand binding ([3H]Ketanserin); parameters: Inhibition of ligand binding, Ser. 5-HT2A: concentration or dose not given beside the values; conditions: percent inhibition of specific binding
T4 construct: expressed in transfected cells; host or cells: CHO-K1 cells
Protocol: Compounds of the invention were incubated with 0.5 nM [^3H]Ketanserin for 60 minutes at 25° C. Non-specific binding was estimated in the presence of 1 μM Mianserin. Receptor proteins were filtered and washed, the filters were then counted to determine [^3H]Ketanserin specifically bound. […] Biochemical assay results are presented as the percent inhibition of specific binding in Table 6.

[5] = molecular target: T5, human recombinant histamine H1 receptor (Homo sapiens, UniProt P35367); test: Histamine H1 radioligand binding ([3H]Pyrilamine); conditions: for inhibition at 0.03 µM: 0.03 μM compound; for inhibition at 0.1 µM: 0.1 μM compound; for inhibition at 0.01 µM: 10 nM (0.01 μM) compound
T5 construct: expressed in transfected cells; host or cells: CHO cells
Summary of the method: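 CHO-expressed receptor in modified Tris-HCl buffer (50 mM, pH 7.4; 2 mM MgCl2, 100 mM NaCl, 250 mM sucrose); bound ligand measured after filtration and washing.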

[6] = molecular target: T6, human recombinant adrenergic α2B receptor (Homo sapiens, UniProt P18089); test: Adrenergic α2B radioligand binding ([3H]Rauwolscine); parameters: Inhibition of ligand binding, Adren. alpha2B: concentration or dose not given beside the values; conditions: percent inhibition of specific binding
T6 construct: expressed in transfected cells; host or cells: CHO-K1 cells
T6 sequence (P18089 1-450): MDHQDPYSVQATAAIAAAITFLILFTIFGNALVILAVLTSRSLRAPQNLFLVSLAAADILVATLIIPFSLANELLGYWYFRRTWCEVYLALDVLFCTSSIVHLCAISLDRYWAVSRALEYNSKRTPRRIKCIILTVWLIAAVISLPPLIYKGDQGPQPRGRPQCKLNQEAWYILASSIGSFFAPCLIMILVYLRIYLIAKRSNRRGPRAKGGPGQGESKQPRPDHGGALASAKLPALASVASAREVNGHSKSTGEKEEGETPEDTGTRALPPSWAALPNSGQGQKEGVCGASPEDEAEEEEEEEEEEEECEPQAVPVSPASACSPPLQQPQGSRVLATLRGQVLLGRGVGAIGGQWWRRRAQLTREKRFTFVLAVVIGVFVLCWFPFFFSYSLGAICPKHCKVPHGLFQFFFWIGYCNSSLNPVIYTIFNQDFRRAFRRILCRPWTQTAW
Protocol: To evaluate in radioligand binding assays the activity of compounds of the invention, human recombinant adrenergic α2B receptor expressed in Chinese hamster ovary (CHO-K1) cells (Uhlen S et al. Eur J. Pharmacol. 343(1):93, 1998) in a modified Tris-HCl buffer (50 mM Tris-HCl, pH 7.4, 12.5 mM MgCl2, 1 mM EDTA, 0.2% BSA) was used. Compounds of the invention were incubated with 2.5 nM [^3H]Rauwolscine for 60 minutes at 25° C. Non-specific binding was estimated in the presence of 10 μM Prozosin. Receptor proteins were filtered and washed, the filters were then counted to determine [^3H]Rauwolscine specifically bound. […] Biochemical assay results are presented as the percent inhibition of specific binding in Table 6.

[7] = […] [3H]Pyrilamine, read-out: Histamine Binding H1, percent inhibition of specific binding
[8] = 1 μM compound, […] [3H]Pyrilamine, read-out: Histamine Binding H1, percent inhibition of specific binding
[9] = percent inhibition of specific binding, screened at 1 μM, read-out: Inhibition of ligand binding, Hist. H1

T1 sequence (P14416 whole entry): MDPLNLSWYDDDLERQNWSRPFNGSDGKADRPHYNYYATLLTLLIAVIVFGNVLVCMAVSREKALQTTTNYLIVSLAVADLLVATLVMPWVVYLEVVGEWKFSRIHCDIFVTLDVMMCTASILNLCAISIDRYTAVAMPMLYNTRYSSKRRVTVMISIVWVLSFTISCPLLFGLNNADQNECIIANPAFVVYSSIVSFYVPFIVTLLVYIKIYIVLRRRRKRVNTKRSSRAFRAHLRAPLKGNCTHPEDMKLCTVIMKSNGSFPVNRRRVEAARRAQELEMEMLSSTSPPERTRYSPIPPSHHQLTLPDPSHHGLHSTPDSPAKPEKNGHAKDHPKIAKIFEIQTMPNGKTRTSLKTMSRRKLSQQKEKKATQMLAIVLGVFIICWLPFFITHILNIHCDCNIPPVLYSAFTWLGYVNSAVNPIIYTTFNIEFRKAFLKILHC
T5 sequence (P35367 whole entry): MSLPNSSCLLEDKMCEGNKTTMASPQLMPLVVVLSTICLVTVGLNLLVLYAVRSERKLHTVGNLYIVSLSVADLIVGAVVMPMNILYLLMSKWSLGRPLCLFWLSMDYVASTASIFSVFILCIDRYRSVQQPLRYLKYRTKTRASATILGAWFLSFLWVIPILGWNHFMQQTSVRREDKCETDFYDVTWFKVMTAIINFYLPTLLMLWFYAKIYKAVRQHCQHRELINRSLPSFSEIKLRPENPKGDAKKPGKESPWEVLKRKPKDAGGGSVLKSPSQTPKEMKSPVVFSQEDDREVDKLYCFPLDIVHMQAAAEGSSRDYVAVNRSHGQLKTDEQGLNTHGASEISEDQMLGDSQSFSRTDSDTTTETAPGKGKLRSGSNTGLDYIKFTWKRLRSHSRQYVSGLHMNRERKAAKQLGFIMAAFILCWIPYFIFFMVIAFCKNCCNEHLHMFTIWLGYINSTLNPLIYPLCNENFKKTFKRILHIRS
T2 sequence (P50406 whole entry): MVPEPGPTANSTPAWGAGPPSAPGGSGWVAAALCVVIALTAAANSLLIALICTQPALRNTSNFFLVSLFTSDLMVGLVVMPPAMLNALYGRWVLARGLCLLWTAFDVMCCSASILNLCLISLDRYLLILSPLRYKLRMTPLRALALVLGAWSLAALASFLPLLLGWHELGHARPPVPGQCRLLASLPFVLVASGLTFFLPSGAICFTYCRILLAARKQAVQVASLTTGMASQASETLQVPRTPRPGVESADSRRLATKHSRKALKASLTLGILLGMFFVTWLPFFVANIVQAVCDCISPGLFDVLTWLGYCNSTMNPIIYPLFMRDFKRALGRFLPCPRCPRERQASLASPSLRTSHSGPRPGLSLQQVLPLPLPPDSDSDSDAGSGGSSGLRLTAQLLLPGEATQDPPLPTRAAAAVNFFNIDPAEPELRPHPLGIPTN
T4 sequence (P28223 whole entry): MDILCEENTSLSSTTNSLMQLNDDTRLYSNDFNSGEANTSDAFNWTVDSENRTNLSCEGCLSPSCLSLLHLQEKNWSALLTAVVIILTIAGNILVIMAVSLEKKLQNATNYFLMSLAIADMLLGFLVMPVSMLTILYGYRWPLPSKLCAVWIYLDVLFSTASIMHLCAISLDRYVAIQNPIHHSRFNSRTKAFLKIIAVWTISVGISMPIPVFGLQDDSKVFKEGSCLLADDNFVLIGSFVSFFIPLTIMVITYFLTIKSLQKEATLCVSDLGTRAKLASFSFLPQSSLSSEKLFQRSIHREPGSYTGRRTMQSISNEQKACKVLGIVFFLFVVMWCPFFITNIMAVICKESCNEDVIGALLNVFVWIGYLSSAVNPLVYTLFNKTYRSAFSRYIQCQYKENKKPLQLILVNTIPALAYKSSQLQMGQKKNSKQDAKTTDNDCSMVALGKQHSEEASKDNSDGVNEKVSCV

SMILES	Inhibition of ligand binding, Dop. D2L [1]	Inhibition of ligand binding, Ser. 5-HT6 [2]	Inhibition of ligand binding, Adren. alpha1D [3]	inhibition at 1 µM [5, 8]	inhibition at 1 µM [5, 9]	Inhibition of ligand binding, Adren. alpha2B [6]	inhibition at 0.004 µM ([5]; 4 nM compound, […] [3H]Pyrilamine, read-out: Histamine Binding H1, percent inhibition of specific binding)	inhibition at 0.02 µM ([5]; 0.02 μM compound, […] [3H]Pyrilamine, read-out: Histamine Binding H1, percent inhibition of specific binding)	Inhibition of ligand binding, Ser. 5-HT2A [4]	inhibition at 0.03 µM [5, 7]	inhibition at 0.1 µM [5, 7]	inhibition at 0.01 µM [5, 7]
Cc1ccc(CCn2c3c(c4ccccc42)CN(C)CC3)cc1 [Compound 1, 2,3,4,5-tetrahydro-2-methyl-5-(4-methylphenethyl)-1H-pyrido[4,3-b]indole]	62%	87%	76%	91%	91%				95%	32%	56%	
Cc1ccc2c(c1)c1c(n2CCc2ccccc2)CCN(C)C1 [Compound 20, 2,3,4,5-tetrahydro-2,8-dimethyl-5-phenethyl-1H-pyrido[4,3-b]indole]	87%		94%	97%	97%	108%	34%	73%	98%		93%	
Cc1ccc2c(c1)c1c(n2CCc2ccncc2)CCN(C)C1 [Compound 22, 2,3,4,5-tetrahydro-2,8-dimethyl-5-(2-(pyridin-4-yl)ethyl)-1H-pyrido[4,3-b]indole]	27%		83%	100%	100%	105%			81%	63%		36%
Cc1ccc2c(c1)c1c(n2CCc2ccccc2F)CCN(C)C1 [Compound 34, 5-(2-fluorophenethyl)-2,3,4,5-tetrahydro-2,8-dimethyl-1H-pyrido[4,3-b]indole]	88%	104%	76%	96%	96%				99%		67%	22%
CN1CCc2c(c3cc(Cl)ccc3n2CC(=O)N2CCOCC2)C1 [Compound 238, 2-(8-chloro-1,2,3,4-tetrahydro-2-methylpyrido[4,3-b]indol-5-yl)-1-morpholinoethanone]	−1%	5%	2%	26%	26%	14%						
CN1CCc2c(c3cc(Cl)ccc3n2CC(=O)N2CCSCC2)C1 [Compound 239, 2-(8-chloro-1,2,3,4-tetrahydro-2-methylpyrido[4,3-b]indol-5-yl)-1-thiomorpholinoethanone]	−1%	8%	3%	50%	50%	24%						
CN1CCc2c(c3cc(Cl)ccc3n2CCC(=O)N2CCCC2)C1 [Compound 240, 3-(8-chloro-1,2,3,4-tetrahydro-2-methylpyrido[4,3-b]indol-5-yl)-1-(pyrrolidin-1-yl)propan-1-one]	9%	25%	42%	60%	60%	50%						
CN1CCc2c(c3cc(Cl)ccc3n2CC(=O)N2CCCC2)C1 [Compound 243, 2-(8-chloro-1,2,3,4-tetrahydro-2-methylpyrido[4,3-b]indol-5-yl)-1-(pyrrolidin-1-yl)ethanone]	8%	12%	8%	84%	84%	6%						

The next lines start with results.

Inhibition of ligand binding, Dop. D2L [1]	Inhibition of ligand binding, Ser. 5-HT6 [2]	Inhibition of ligand binding, Adren. alpha1D [3]	inhibition at 1 µM [5, 8]	inhibition at 1 µM [5, 9]	Inhibition of ligand binding, Adren. alpha2B [6]	inhibition at 0.004 µM ([5]; 4 nM compound, […] [3H]Pyrilamine, read-out: Histamine Binding H1, percent inhibition of specific binding)	inhibition at 0.02 µM ([5]; 0.02 μM compound, […] [3H]Pyrilamine, read-out: Histamine Binding H1, percent inhibition of specific binding)	SMILES	Inhibition of ligand binding, Ser. 5-HT2A [4]	inhibition at 0.03 µM [5, 7]	inhibition at 0.1 µM [5, 7]	inhibition at 0.01 µM [5, 7]
6%	13%	12%	15%	15%	13%			CN1CCc2c(c3cc(Cl)ccc3n2CC(=O)N2CCNCC2)C1 [Compound 244]				
4%	−2%	1%	22%	22%	19%			CC1CN(C(=O)Cn2c3c(c4cc(Cl)ccc42)CN(C)CC3)CC(C)N1 (stereo not shown) [Compound 245]				
1%	2%	12%	18%	18%	11%			CN1CCc2c(c3cc(Cl)ccc3n2CC(=O)N2CCNC(=O)C2)C1 [Compound 246]				
0%	9%	15%		43%	7%			CC(=O)N1CCN(C(=O)Cn2c3c(c4cc(Cl)ccc42)CN(C)CC3)CC1 [Compound 297, 1-(4-Acetyl-piperazin-1-yl)-2-(8-chloro-2-methyl-1,2,3,4-tetrahydro-pyrido[4,3-b]indol-5-yl)-ethanone]				
−1%	15%	4%		50%	25%			CC1CCCCN1C(=O)Cn1c2c(c3cc(Cl)ccc31)CN(C)CC2 (stereo not shown) [Compound 321, 2-(8-chloro-1,2,3,4-tetrahydro-2-methylpyrido[4,3-b]indol-5-yl)-1-(2-methylpiperidin-1-yl)ethanone]				
